Converted amounts (≈) assume the structure as drawn.
Tests used:
Vero [1] = assay: Selectivity ratio for IC50 of VERO cells to that of MIC of Mycobacterium tuberculosis H37Rv; assay type: functional, Chlorocebus sabaeus
[2] = system: Mycobacterium tuberculosis; assay: Minimum inhibitory concentration against Mycobacterium tuberculosis H37Rv pFPCA1 in green fluorescent protein microplate assay; assay type: functional
Vero [3] = assay: Inhibitory concentration required to produce cytotoxicity against VERO cells; assay type: functional, cell-based; settings: Chlorocebus sabaeus
Vero [4] = assay: Selectivity ratio for IC50 of VERO cells to that of MIC of Mycobacterium tuberculosis H37Rv; d = Poor solubility prevented determination of activity; assay type: functional, cell-based; settings: Chlorocebus sabaeus
Vero [5] = assay: Inhibitory concentration required to produce cytotoxicity against VERO cells; d = Poor solubility prevented determination of activity; assay type: functional, cell-based, Chlorocebus sabaeus
[6] = system: Mycobacterium tuberculosis; assay: Minimum inhibitory concentration against Mycobacterium tuberculosis H37Rv; Range 0.125-0.25 ug/mL; assay type: functional

Row | Compound | Selectivity (Vero [1]) | MIC [2] [µg/mL] | IC50 (Vero [3]) [µg/mL] | Selectivity (Vero [4]) | IC50 (Vero [5]) | MIC [6] [µg/mL]
1 | CN(C)/C=C/c1c2c(nc3ccccc13)C(=O)c1ccccc1C2=O | 15.1 | 0.39 (≈ 1.19 µM) | 5.9 (≈ 18 µM) | – | – | –
2 | O=C1c2cccnc2-c2nccc3c2c1nc1ccccc13 [ASCIDIDEMIN] | <0.4 | 0.1 (≈ 0.353 µM) | < 0.04 | – | – | –
3 | NNC(=O)c1ccncc1 [ISONIAZID] | – | < 0.2 | – | – | – | –
4 | CN(C)/C=C/c1cccc2nc3ccccc3cc12 | – | 21 (≈ 84.6 µM) | – | – | – | –
5 | NC[C@H]1O[C@H](O[C@H]2[C@H](O)[C@@H](O[C@H]3O[C@H](CO)[C@@H](O)[C@H](N)[C@H]3O)[C@H](N)C[C@@H]2N)[C@H](O)[C@@H](O)[C@@H]1O [KANAMYCIN] | – | < 0.2 | – | – | – | –
6 | Cc1c2c(nc3ccccc13)C(=O)c1cccnc1C2=O | – | 6.25 (≈ 22.8 µM) | – | Poor solubility | Poor solubility | –
7 | C=C(C=O)c1c2c(nc3ccccc13)C(=O)c1ccccc1C2=O | – | 0.2 (≈ 0.638 µM) | – | Poor solubility | Poor solubility | –
8 | CN(C)/C=C/c1c2c(nc3ccccc13)C(=O)c1cccnc1C2=O | <0.08 | 3.13 (≈ 9.5 µM) | < 0.26 | – | – | –
9 | CC[C@@H](CO)NCCN[C@@H](CC)CO [ETHAMBUTOL] | – | < 0.2 | – | – | – | –
10 | CO[C@H]1/C=C/O[C@@]2(C)Oc3c(C)c(O)c4c(O)c(c(/C=N/N5CCN(C)CC5)c(O)c4c3C2=O)NC(=O)/C(C)=C\C=C\[C@H](C)[C@H](O)[C@@H](C)[C@@H](O)[C@@H](C)[C@H](OC(C)=O)[C@@H]1C [RIFAMPIN] | 400 | – | 100 (≈ 122 µM) | – | – | 0.25 (≈ 0.304 µM)
11 | CN(C)CCc1c2c(nc3ccccc13)C(=O)c1ccccc1C2=O | 4.5 | 0.78 (≈ 2.36 µM) | 3.5 (≈ 10.6 µM) | – | – | –
12 | CN(C)/C=C/c1ccnc2c1C(=O)c1ccccc1C2=O | 5.8 | 1.56 (≈ 5.61 µM) | 9.1 (≈ 32.7 µM) | – | – | –
13 | O=C(O)c1cn(C2CC2)c2cc(N3CCNCC3)c(F)cc2c1=O [CIPROFLOXACIN] | – | < 0.2 | – | – | – | –
14 | CN(C)CCc1c2c(nc3ccccc13)C(=O)c1cccnc1C2=O | 0.45 | 3.13 (≈ 9.45 µM) | 1.4 (≈ 4.22 µM) | – | – | –
15 | Cc1c2c(nc3ccccc13)C(=O)c1ccccc1C2=O | – | 1.56 (≈ 5.71 µM) | – | Poor solubility | Poor solubility | –

From ChEMBL document CHEMBL1142818, “Identification of heteroarylenamines as a new class of antituberculosis lead molecules” (Bioorg Med Chem Lett, 2005)
